Laboratory results published in ChEMBL document CHEMBL5036338, “Structural Insights into the Inhibition of Undecaprenyl Pyrophosphate Synthase from Gram-Positive Bacteria” (2021).
Calls of active or inactive are those of the source. No cut-off for these calls is given here.

Assays:
Staphylococcus aureus [1] = test: Synergistic antibacterial activity against community acquired methicillin resistant Staphylococcus aureus USA300 assessed as potentiation of cefuroxime-induced antibacterial activity by measuring cefuroxime fractional inhibitory concentration incubated for 18 hrs by checkerboard broth microdilution assay; assay type: functional
Staphylococcus aureus [2] = test: Synergistic antibacterial activity against community acquired methicillin resistant Staphylococcus aureus USA300 assessed as potentiation of cefuroxime-induced antibacterial activity by measuring cefuroxime MIC incubated for 18 hrs by checkerboard broth microdilution assay; assay type: functional
Staphylococcus aureus [3] = test: Synergistic antibacterial activity against community acquired methicillin resistant Staphylococcus aureus USA300 assessed as fractional inhibitory concentration index in presence of cefuroxime incubated for 18 hrs by checkerboard broth microdilution assay; assay type: functional
Staphylococcus aureus [4] = test: Synergistic antibacterial activity against community acquired methicillin resistant Staphylococcus aureus USA300 assessed as fractional inhibitory concentration incubated for 18 hrs by checkerboard broth microdilution assay; assay type: functional
Staphylococcus aureus [5] = test: Synergistic antibacterial activity against community acquired methicillin resistant Staphylococcus aureus USA300 incubated for 18 hrs by checkerboard broth microdilution assay; assay type: functional
Staphylococcus aureus [6] = test: Inhibition of Staphylococcus aureus UPPS using FPP and IPP as substrates preincubated for 20 mins followed by substrate addition

CCc1cc(N2CCCCCC2)n2ncc(-c3ccc(F)cc3)c2n1
FIC (Staphylococcus aureus [1]): 0.0156 | MIC (Staphylococcus aureus [2]): > 32 µg/mL | fractional inhibitory concentration index (FICI) (Staphylococcus aureus [3]): 0.0468 | FIC (Staphylococcus aureus [4]): 0.0312 | MIC (Staphylococcus aureus [5]): > 128 µg/mL

Cc1cc(N2CCOCC2)n2ncc(-c3ccc(F)cc3)c2n1
FIC (Staphylococcus aureus [1]): 0.125 | MIC (Staphylococcus aureus [2]): > 32 µg/mL | fractional inhibitory concentration index (FICI) (Staphylococcus aureus [3]): 0.156 | FIC (Staphylococcus aureus [4]): 0.03125 | MIC (Staphylococcus aureus [5]): > 128 µg/mL

CCCc1cc(N2CCCCCC2)n2ncc(-c3ccc(F)cc3)c2n1
FIC (Staphylococcus aureus [1]): 0.0312 | MIC (Staphylococcus aureus [2]): > 32 µg/mL | fractional inhibitory concentration index (FICI) (Staphylococcus aureus [3]): 0.0625 | FIC (Staphylococcus aureus [4]): 0.0312 | MIC (Staphylococcus aureus [5]): > 128 µg/mL

Cc1cc(N2CCCCCCC2)n2ncc(-c3ccc(F)cc3)c2n1
FIC (Staphylococcus aureus [1]): 0.0312 | MIC (Staphylococcus aureus [2]): > 32 µg/mL | fractional inhibitory concentration index (FICI) (Staphylococcus aureus [3]): 0.0625 | FIC (Staphylococcus aureus [4]): 0.0312 | MIC (Staphylococcus aureus [5]): > 128 µg/mL

CCc1cc(N2CCCCCCC2)n2ncc(-c3ccc(F)cc3)c2n1
FIC (Staphylococcus aureus [1]): 0.0625 | MIC (Staphylococcus aureus [2]): > 32 µg/mL | fractional inhibitory concentration index (FICI) (Staphylococcus aureus [3]): 0.1875 | FIC (Staphylococcus aureus [4]): 0.125 | MIC (Staphylococcus aureus [5]): > 128 µg/mL

CCN(CC)CCOc1ccc(/C(=C(/Cl)c2ccccc2)c2ccccc2)cc1 [ENCLOMIPHENE]
FIC (Staphylococcus aureus [1]): 0.063 | MIC (Staphylococcus aureus [2]): 256 µg/mL | fractional inhibitory concentration index (FICI) (Staphylococcus aureus [3]): 0.313 | FIC (Staphylococcus aureus [4]): 0.25 | MIC (Staphylococcus aureus [5]): 16 µg/mL

Cc1cc(N2CCCCCC2)n2ncc(-c3cccc(F)c3)c2n1
FIC (Staphylococcus aureus [1]): 0.0312 | MIC (Staphylococcus aureus [2]): > 32 µg/mL | fractional inhibitory concentration index (FICI) (Staphylococcus aureus [3]): 0.0937 | FIC (Staphylococcus aureus [4]): 0.0625 | MIC (Staphylococcus aureus [5]): > 128 µg/mL

Cc1cc(N2CCCCCC2)n2ncc(-c3ccc(F)cc3)c2n1
inhibition (Staphylococcus aureus [6]): Active | FIC (Staphylococcus aureus [1]): 0.0156 | MIC (Staphylococcus aureus [2]): > 32 µg/mL | fractional inhibitory concentration index (FICI) (Staphylococcus aureus [3]): 0.0781 | FIC (Staphylococcus aureus [4]): 0.0625 | MIC (Staphylococcus aureus [5]): > 128 µg/mL
